Consider two molecules from patent publication US6599522B2, “Triglyceride reducing agent” (priority 2000, dated 2003).

Data set [1] has as its system hyperlipidemic rats. Briefly: Dose response spectrum of the hypolipidemic agent, animal assay on hyperlipidemic diet. Also on record: Serum triglycerides, TOTAL / Serum triglycerides, LDL-VLDL / Serum triglycerides, HDL: unit not given here. Type of data set: in vivo, Wistar male rats. The note with it: six weeks; for Hypocholesterolemic effect, lowering: mainly LDL-VLDL fraction. The text has this: Dose Response Spectrum of the Hypolipidemic Agent—Animal Assay: The response in terms of the lowering of triglyceride component in the majority of the human cases were encouraging. This initiated a dose response test in young adult rats to determine a standard response curve. Such a curve would help in choosing the proper doses for further clinical trials and determine the adequacy and nature of the response. The tests were done on groups of young Wistar male rats, statistically distributed on the basis of body weight (125±5 g) into six groups, including a control group. […] The basal hyperlipidemic diet contained (g/100): casein 15, corn starch 40, cane sugar 10, hydrogenated fat 25, refined peanut oil 5, NRC vitamin mixture (choline free) 1, and salt mixture (Bernhardt-Tomarrelli modified) 4. Fat soluble vitamins at desired concentrations were added to the peanut oil. Vanillin was incorporated into the hyperlipidemic diet in replacement of starch at the desired levels. The duration of the test feeding period was six weeks. At the end of the experimental period, the rats were sacrificed and lipid analysis was done using standard procedures.

The conditions of data set [2]: man; cited from earlier work.
For data set [3], the system named is guinea pigs. The note with it: guinea pig, in vivo; cited from earlier work.
Data set [4] concerns rats. The note with it: cited from earlier work.
Data set [5] deals with rats. The conditions noted are these: cited from earlier work. This is another data set of the same source.
The subject of data set [6] is rabbits. The note with it: rabbit, in vivo; cited from earlier work.
Data set [7] deals with hyperlipidemic patients. Briefly: Clinical study: effect of the hypolipidemic agent on elevated triglyceride levels in blood. It is filed as in vivo, human. How it is done: Effect (in vivo) of the Hypolipidemic Agent on Elevated Triglyceride Levels in Blood-Clinical Study Patients attending the Endocrinology and Metabolism outpatient department of […] Medical College Hospital were included in the study. Patients with baseline serum total cholesterol above 200 mg/dl and/or serum triglycerides above 200 mg/dl after 6-12 weeks of low fat diet, exercise and weight reduction program, were included in the study. The compliance of the subjects for diet, weight and exercise schedules were monitored throughout the study. The number of patients recruited for the study were 37, including a child. There were […] in the age group of 30 to 62 years. Of the 37 patients, 23 patients were diabetic (type two diabetes) and 16 patients had essential hypertension, and two women and nine men were obese, the others being of normal weight. Two men and one person dropped out of the study, due to unknown causes. Of the original patients, 34 completed the study as per the protocol. In the initial visit, patient's height in centimeters, and weight in kilograms were recorded. After noting detailed history, physical examinations were performed on each patient. Informed consent was taken from all patients and, in the case of minors, from their parents. Blood samples were drawn for routine hematology, fasting and post prandial plasma glucose, blood urea, serum creatinine, liver function test and lipid profile. At each visit, the patient's weight and diet and exercise compliance was checked and blood samples for hematology and lipid profile were drawn. The patients were given 20 mg of Vanillin in gelatin capsule once a day before the main meal. At each visit, pill count was done to check the compliance of the drug intake. The data were recorded in the case record form and computer by authorized persons. The data were analyzed statistically.

Setting [8] is: 20 mg/day oral, throughout the study.
The mark [9] stands for this setting: mean of 10 patients, baseline mean 425.2, p < 0.0005 vs TG1, 20 mg/day.

Structures are written as SMILES. Several values for one entry are separate records, joined by “and”; a condition that tells them apart may be missing. Equal values may be shown once. Read-outs that look alike come from different tables or passages of the source. Marks after values point to notes of the source that are not given here.

As for `COc1cc(C=O)ccc1O` [Vanillin, 4-hydroxy-3-methoxybenzaldehyde], in data set [1] (0.125% and 0.25% in diet), the Liver total lipids entry was “significantly higher”. The “Triglycerides in the liver” value in data set [1] (0.125% and 0.25% in diet) is recorded as “higher accumulation”. Moreover, in data set [1] (0.125% in diet), the “Decrease in HDL cholesterol” value turned out to be 16%. Moreover, the figures for the “Hypocholesterolemic effect, lowering” value in data set [1] (0.125% in diet) and in data set [1] (0.25% in diet) were 18% and 12%, respectively. The “Serum triglycerides, HDL” value is recorded as 69.3 ± 7.0 in data set [1] (0.125% in hyperlipidemic diet); 74.3 ± 10.4 in data set [1] (0.25% in hyperlipidemic diet); 29.8 ± 6.5 in data set [1] (0.5% in hyperlipidemic diet); 41.7 ± 5.5 in data set [1] (1.0% in hyperlipidemic diet); 38.6 ± 4.8 in data set [1] (5.0% in hyperlipidemic diet). Besides, the “Serum triglycerides, LDL-VLDL” value was determined as 128.3 ± 4.1 in data set [1] (0.125% in hyperlipidemic diet); 147.1 ± 6.5 in data set [1] (0.25% in hyperlipidemic diet); 127.0 ± 4.3 in data set [1] (0.5% in hyperlipidemic diet); 104.8 ± 4.9 in data set [1] (1.0% in hyperlipidemic diet); 141.8 ± 10.3 in data set [1] (5.0% in hyperlipidemic diet). The “Serum triglycerides, TOTAL” value in data set [1] (0.125% in hyperlipidemic diet) was found to be 197.6 ± 9.74; in data set [1] (0.25% in hyperlipidemic diet) it was 221.4 ± 16.5; in data set [1] (0.5% in hyperlipidemic diet), 156.8 ± 10.4; in data set [1] (1.0% in hyperlipidemic diet), 146.5 ± 9.33; in data set [1] (5.0% in hyperlipidemic diet) it was 180.4 ± 3.69. Besides, the “Decrease in serum phospholipids” value amounted to 19% in data set [1] (0.5% in diet) and 14% in data set [1] (1.0% in diet). Further, in data set [1] (1% and 5% levels in diet), the Adipose fat entry is listed as “lowered”. For the same molecule, the Liver weights result in data set [1] (any of the levels tested (0.125-5% in diet)) is “not affected”. Besides, the Metabolism and excretion entry in data set [2] is “converted to vanillic acid in the liver and is excreted in the urine”. The results for the “Acute oral LD50” value in data set [3] and in data set [6] were 1400 mg/kg and 3000 mg/kg, respectively. Moreover, the “Body and organ weights, hematology, and histopathology, test versus control rats” value in data set [4] (1.0% of diet 16 weeks, 0.1% 27 to 28 weeks, 2.0% and 5.0% one year, 0.5%, 1.0% and 2.0% two years) is “no significant differences”. The Adverse effects entry in data set [4] (rats, 5% diet for 90 days (earlier study)) is “growth depression and organ enlargement”; in data set [4] (rats, oral, once a day 20 mg/kg/d for 126 days), “no adverse effects”; in data set [4] (rats, oral, twice per week 300 mg/kg/dose for 14 weeks), “no adverse effects”. For the same molecule, in data set [4] (rats, 5% in diet), the “Daily intake equal to the highest level without adverse effect” value was approximately 2500 mg/kg. Also, the “Highest level consumed without adverse effect” value in data set [4] (rats, level in diet) was 5%. Besides, the “Highest no-adverse-effect intake relative to estimated per capita daily intake” value in data set [4] (versus a 60-kg person) is given as ~14,000 times. For the same molecule, in data set [5] (0.15 mg % vanillin), the “Reduction in serum triglycerides” value is recorded as 24%. The “Change in serum HDL level” value in data set [7] (20 mg/day) is “no significant change”. In addition, in data set [7] (setting [8]), the “Adverse effects in patients” value was “No adverse effects”. Further, in data set [7] (setting [8]), the “Routine biochemistry, hematology and liver function tests” value is given as “did not show any significant change”. Also, the “DELTA = (TG1 − TG3)” value in data set [7] (individual patient, before treatment minus 6 weeks after treatment, 20 mg/day) was 243 mg/dL and 199 mg/dL and 218 mg/dL and 120 mg/dL and 168 mg/dL and 236 mg/dL and 133 mg/dL and 250 mg/dL and 158 mg/dL and 224 mg/dL. The “(DELTA/TG1) ×100” value in data set [7] (individual patient, reduction of serum triglyceride at 6 weeks, 20 mg/day) was 41.68% and 52.15% and 53.96% and 42.25% and 30.65% and 49.58% and 43.18% and 58.14% and 47.02% and 44.44%. The “DELTA = (TG1 − TG3), mean” value in data set [7] (mean of 10 patients, 20 mg/day) amounted to 194.9 mg/dL. Besides, the “(DELTA/TG1) ×100, mean” value in data set [7] (mean of 10 patients, 6 weeks, 20 mg/day) amounted to 46.34%. Moreover, in data set [7] (setting [9]), the “TG2: fasting serum triglyceride level 3 weeks after treatment, mean” value is on record as 306.0** mg/dl. In data set [7] (setting [9]), the “TG3: fasting serum triglyceride level 6 weeks after treatment, mean” value stood at 230.3 mg/dL. In addition, in data set [7] (mean, 20 mg/day), the “Change from baseline total cholesterol, mean” value is 74.5 mg/dL. In addition, the “Reduction of serum triglyceride” value in data set [7] (patient, about six weeks, 20 mg/day) is recorded as “up to 75%”. Further, the “Serum triglyceride after treatment” value in data set [7] (patient, initial value 3078 mg/dl, about six weeks, 20 mg/day) was determined as 786 mg/dL.

`COc1cc(CNC(=O)CCCC/C=C/C(C)C)ccc1O` [capsaicin, reference compound]: the “Reduction in serum triglycerides” value in data set [5] (0.3 mg % capsaicin) was 13%.
